Experimental data published in US20240175881A1, “SIMPLIFIED METHODS FOR MEASURING LIVER FUNCTION” (HepQuant, LLC, priority 2022, published 2024).

Tests used:
[1] = test system: subjects with Child-Pugh A cirrhosis and a liver stiffness measurement of >15 kPa; details: HepQuant SHUNT test; cited from earlier work
[2] = test system: patients with well-compensated (Child-Pugh A) NASH cirrhosis; experiment: Risk ACE from simplified cholate tests (SHUNT V2.0, DuO) in open-label resmetirom arm of MAESTRO-NAFLD-1; type: in vivo, human
Text: MAESTRO-NAFLD-1 (NCT04197479) was a 52-week Phase 3 trial to evaluate the safety and tolerability of resmetirom, a thyroid hormone receptor-β agonist being studied for the treatment of NASH. (Harrison et al., Lancet 2019, 394:2012-24). MAESTRO-NAFLD-1 included an open-label active resmetirom treatment arm in patients with well-compensated (Child-Pugh A [CP-A]) NASH cirrhosis (FIG. 23).
Methods: Subjects (n=34) with compensated NASH cirrhosis underwent baseline testing and subsequent retesting at 28 and 48 weeks. Eligibility included at least 3 metabolic risk factors and NASH cirrhosis diagnosed by liver biopsy or accepted criteria
AUCs were calculated by a compartmental model (McRae et al., 2023 Translational Res. 252:53-63). For SHUNT V2.0: IV and oral data at 20 and 60 minutes were employed. For DuO: only oral data at 20 and 60 minutes were employed.
Risk ACE was calculated for each subject from the baseline and weeks 28 and 48 disease severity index (DSI). A Poisson model (Risk ACE) estimated the annual clinical event rate based on 220 subjects with 52 clinical events from the HALT-C Trial. The result is an event rate (clinical events per person-year). • Model A: Relationship with baseline DSI (denoted by dsi0):
Y=β0+β1dsi0 • Model D: Relationship with baseline DSI and change in DSI (denoted dsiΔ)
Difference from baseline is represented by the difference of Risk ACE Model A and Model D (Table 26).

SMILES	hepatic function [1]	subjects in whom Risk ACE decreased ([2]; DuO test, 28 weeks vs baseline)	subjects in whom Risk ACE decreased ([2]; DuO test, 48 weeks vs baseline)	Δ Risk ACE ([2]; DuO test, Baseline - Week 28 of resmetirom)	Δ Risk ACE ([2]; DuO test, Baseline - Week 28 of resmetirom, listed as resmetirom)	Δ Risk ACE ([2]; DuO test, Baseline - Week 48 of resmetirom)	Δ Risk ACE ([2]; DuO test, Baseline - Week 48 of resmetirom, listed as resmetirom)	subjects in whom Risk ACE decreased ([2]; SHUNT V2.0 test, 28 weeks vs baseline)	subjects in whom Risk ACE decreased ([2]; SHUNT V2.0 test, 48 weeks vs baseline)	Δ Risk ACE ([2]; SHUNT V2.0 test, Baseline - Week 28 of resmetirom)	Δ Risk ACE ([2]; SHUNT V2.0 test, Baseline - Week 28 of resmetirom, listed as resmetirom)	Δ Risk ACE ([2]; SHUNT V2.0 test, Baseline - Week 48 of resmetirom)	Δ Risk ACE ([2]; SHUNT V2.0 test, Baseline - Week 48 of resmetirom, listed as resmetirom)	estimated clinical event rate ([2]; simplified cholate tests, after 28 weeks of resmetirom)
CCOc1c(C(=O)O)cnn1-c1cccc(-c2cccc(C)c2OCc2ccc3c(c2C)CCN(C2CCOCC2)C3)n1 [BI 685509]	improves hepatic function													
CC(C)c1cc(Oc2c(Cl)cc(-n3nc(C#N)c(=O)[nH]c3=O)cc2Cl)n[nH]c1=O [Resmetirom]		21 of 23	19 of 23	−0.0182 clinical events per person-year	significant decrease	−0.0355 clinical events per person-year	−0.0355 clinical events per person-yea	20 of 23	19 of 23	−0.0174 clinical events per person-year	−0.0170 clinical events per person-yea	−0.0325 clinical events per person-year	−0.0325 clinical events per person-yea	reduction in estimated clinical event rate
